Source: patent US20250353842A1, “BICYCLIC AMINE CDK12 INHIBITORS” (Incyte Corporation, priority 2022, published 2025)

Molecular target: CDK12 complexed with Cyclin K (Homo sapiens (Human), UniProt Q9NYV4)
Assay: CDK enzymatic assay (HTRF, LANCE Ultra kinase assay)
Format: biochemical
Conditions: 60 minutes pre-incubation, 1 mM ATP
Procedure, shortened: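 GST-tagged human CDK12 co-expressed with full-length Cyclin K in baculovirus, pre-incubated 60 min with compound, then 1 mM ATP and 50 nM ULight-4E-BP1 peptide (final) in pH 7.5 HEPES buffer for 60-90 min at room temperature. EDTA/Eu-anti-phospho-4E-BP1 stop; 665/620 nm HTRF ratio normalized to DMSO and no-enzyme controls, IC50 from 3- or 4-parameter fit.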

CDK12 complexed with Cyclin K, sequence (Q9NYV4 whole entry): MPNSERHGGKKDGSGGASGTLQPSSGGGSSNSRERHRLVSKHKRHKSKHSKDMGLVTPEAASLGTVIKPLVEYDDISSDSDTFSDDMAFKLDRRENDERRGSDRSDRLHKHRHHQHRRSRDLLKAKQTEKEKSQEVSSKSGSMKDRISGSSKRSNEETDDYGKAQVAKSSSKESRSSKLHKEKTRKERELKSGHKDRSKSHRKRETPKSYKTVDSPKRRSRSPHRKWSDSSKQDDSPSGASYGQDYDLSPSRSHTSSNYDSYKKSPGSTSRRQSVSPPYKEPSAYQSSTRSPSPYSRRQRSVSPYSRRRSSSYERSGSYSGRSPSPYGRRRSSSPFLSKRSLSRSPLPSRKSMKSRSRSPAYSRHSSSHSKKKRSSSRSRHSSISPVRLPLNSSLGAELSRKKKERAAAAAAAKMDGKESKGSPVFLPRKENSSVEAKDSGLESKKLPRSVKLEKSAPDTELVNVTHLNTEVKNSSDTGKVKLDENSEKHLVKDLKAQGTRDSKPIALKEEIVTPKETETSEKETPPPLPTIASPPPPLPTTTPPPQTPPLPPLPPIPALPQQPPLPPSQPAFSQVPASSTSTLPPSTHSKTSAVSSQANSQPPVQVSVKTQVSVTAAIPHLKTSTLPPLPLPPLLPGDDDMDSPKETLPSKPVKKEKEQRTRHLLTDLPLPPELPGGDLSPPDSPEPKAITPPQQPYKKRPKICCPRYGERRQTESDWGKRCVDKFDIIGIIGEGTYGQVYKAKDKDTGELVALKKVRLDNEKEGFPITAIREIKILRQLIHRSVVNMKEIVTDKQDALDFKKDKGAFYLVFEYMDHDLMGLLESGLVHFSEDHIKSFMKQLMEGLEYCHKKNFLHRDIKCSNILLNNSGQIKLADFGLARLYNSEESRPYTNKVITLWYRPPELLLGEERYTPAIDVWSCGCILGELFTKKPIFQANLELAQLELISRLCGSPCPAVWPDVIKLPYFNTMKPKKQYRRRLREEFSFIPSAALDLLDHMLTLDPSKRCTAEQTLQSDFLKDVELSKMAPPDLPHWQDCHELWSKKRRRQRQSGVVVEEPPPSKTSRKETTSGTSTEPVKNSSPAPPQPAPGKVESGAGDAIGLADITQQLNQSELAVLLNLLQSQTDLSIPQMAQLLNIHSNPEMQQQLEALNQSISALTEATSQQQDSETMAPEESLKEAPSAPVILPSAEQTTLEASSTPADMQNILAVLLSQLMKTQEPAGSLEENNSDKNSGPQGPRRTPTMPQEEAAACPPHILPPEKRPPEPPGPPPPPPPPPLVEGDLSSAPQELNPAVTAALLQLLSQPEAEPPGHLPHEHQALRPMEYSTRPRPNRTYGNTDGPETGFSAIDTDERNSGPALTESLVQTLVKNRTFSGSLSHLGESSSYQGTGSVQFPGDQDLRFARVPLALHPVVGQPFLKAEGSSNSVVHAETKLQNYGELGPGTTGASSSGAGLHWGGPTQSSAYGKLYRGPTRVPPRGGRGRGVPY
CDK12 complexed with Cyclin K, sequence (O75909 whole entry partner): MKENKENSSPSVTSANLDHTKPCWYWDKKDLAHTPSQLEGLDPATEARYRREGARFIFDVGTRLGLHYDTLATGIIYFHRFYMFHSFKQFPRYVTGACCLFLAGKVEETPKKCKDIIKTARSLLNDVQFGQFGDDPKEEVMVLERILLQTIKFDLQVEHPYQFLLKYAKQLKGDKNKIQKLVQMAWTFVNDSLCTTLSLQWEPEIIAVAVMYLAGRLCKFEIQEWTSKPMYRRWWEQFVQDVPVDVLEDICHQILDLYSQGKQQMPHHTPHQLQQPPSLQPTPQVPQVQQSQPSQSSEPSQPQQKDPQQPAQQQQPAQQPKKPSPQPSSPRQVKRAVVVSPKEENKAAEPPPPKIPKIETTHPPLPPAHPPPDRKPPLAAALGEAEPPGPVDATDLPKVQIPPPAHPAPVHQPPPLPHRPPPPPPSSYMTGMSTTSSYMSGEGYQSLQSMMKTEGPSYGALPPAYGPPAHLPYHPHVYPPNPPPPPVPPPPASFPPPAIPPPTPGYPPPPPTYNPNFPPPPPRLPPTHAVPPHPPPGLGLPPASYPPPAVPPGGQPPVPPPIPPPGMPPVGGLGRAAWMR

Row | IC50 [nM] | Compound
1 | < 50 | N#Cc1cnc2c(c1)ncn2[C@H]1CCC[C@@H](Nc2ncc(C#N)c(-c3cnn(CC(F)(F)F)c3)n2)C1 [Example 62, 3-((1S,3R)-3-((5-Cyano-4-(1-(2,2,2-trifluoroethyl)-1H-pyrazol-4-yl)pyrimidin-2-yl)amino)cyclohexyl)-3H-imidazo[4,5-b]pyridine-6-carbonitrile]
2 | < 50 | Cc1c(-c2nc(N[C@@H]3CCC[C@H](n4cnc5cc(C#N)cnc54)C3)ncc2C#N)nnn1C [28/28A, 3-((1S,3R)-3-((5-Cyano-4-(1,5-dimethyl-1H-1,2,3-triazol-4-yl)pyrimidin-2-yl)amino)cyclohexyl)-3H-imidazo[4,5-b]pyridine-6-carbonitrile]
3 | < 50 | FC(F)Cn1cc(-c2nc(N[C@@H]3CCC[C@H](n4cnc5cccnc54)C3)ncc2C(F)(F)F)cn1 [Example 12, N-((1R,3S)-3-(3H-Imidazo[4,5-b]pyridin-3-yl)cyclohexyl)-4-(1-(2,2-difluoroethyl)-1H-pyrazol-4-yl)-5-(trifluoromethyl)pyrimidin-2-amine]
4 | < 50 | CC(C)(O)Cn1cc(-c2nc(N[C@@H]3CCC[C@H](n4cnc5cc(C#N)cnc54)C3)ncc2C#N)cn1 [Example 58, 3-((1S,3R)-3-((5-Cyano-4-(1-(2-hydroxy-2-methylpropyl)-1H-pyrazol-4-yl)pyrimidin-2-yl)amino)cyclohexyl)-3H-imidazo[4,5-b]pyridine-6-carbonitrile]
5 | < 50 | N#Cc1cnc(N[C@@H]2CCC[C@H](n3cnc4cncc(C#N)c43)C2)nc1-c1cnn(C2CC2)c1 [Example 34, 1-((1S,3R)-3-((5-Cyano-4-(1-cyclopropyl-1H-pyrazol-4-yl)pyrimidin-2-yl)amino)cyclohexyl)-1H-imidazo[4,5-c]pyridine-7-carbonitrile]
6 | 50 to 500 | Cc1c(Nc2nc(N[C@@H]3CCC[C@H](n4cnc5cc(C#N)cnc54)C3)ncc2C#N)cnn1C [Example 30, 3-((1S,3R)-3-((5-Cyano-4-((1,5-dimethyl-1H-pyrazol-4-yl)amino)pyrimidin-2-yl)amino)cyclohexyl)-3H-imidazo[4,5-b]pyridine-6-carbonitrile]
7 | 50 to 500 | Cn1ncc(-c2nc(N[C@@H]3CCC[C@H](n4cnc5cccnc54)C3)ncc2C#N)c1C(F)(F)F [Example 23, 2-(((1R,3S)-3-(3H-Imidazo[4,5-b]pyridin-3-yl)cyclohexyl)amino)-4-(1-methyl-5-(trifluoromethyl)-1H-pyrazol-4-yl)pyrimidine-5-carbonitrile]
8 | < 50 | Cn1cc(-c2nc(N[C@@H]3CCC[C@H](n4cnc5cc(C#N)cnc54)C3)ncc2C#N)cn1 [Example 64, 3-((1S,3R)-3-((5-Cyano-4-(1-methyl-1H-pyrazol-4-yl)pyrimidin-2-yl)amino)cyclohexyl)-3H-imidazo[4,5-b]pyridine-6-carbonitrile]
9 | < 50 | CCn1cc(-c2nc(N[C@@H]3CCC[C@H](n4cnc5cc(C#N)cnc54)C3)ncc2C#N)cn1 [Example 73, 3-((1S,3R)-3-((5-Cyano-4-(1-ethyl-1H-pyrazol-4-yl)pyrimidin-2-yl)amino)cyclohexyl)-3H-imidazo[4,5-b]pyridine-6-carbonitrile]
10 | < 50 | N#Cc1cc2c(cn1)ncn2[C@H]1CCC[C@@H](Nc2ncc(C#N)c(-c3cnn(CC(F)F)c3)n2)C1 [Example 46, 1-((1S,3R)-3-((5-Cyano-4-(1-(2,2-difluoroethyl)-1H-pyrazol-4-yl)pyrimidin-2-yl)amino)cyclohexyl)-1H-imidazo[4,5-c]pyridine-6-carbonitrile]
11 | < 50 | N#Cc1cnc(N[C@@H]2CCC[C@H](n3cnc4cc(F)cc(Cl)c43)C2)nc1-c1cnn(CC(F)F)c1 [Example 36, 2-(((1R,3S)-3-(7-Chloro-5-fluoro-1H-benzo[d]imidazol-1-yl)cyclohexyl)amino)-4-(1-(2,2-difluoroethyl)-1H-pyrazol-4-yl)pyrimidine-5-carbonitrile]
12 | < 50 | N#Cc1cnc2c(c1)ncn2[C@H]1CCC[C@@H](Nc2ncc(C#N)c(-c3cnn(C4CCOCC4)c3)n2)C1 [Example 63, 3-((1S,3R)-3-((5-Cyano-4-(1-(tetrahydro-2H-pyran-4-yl)-1H-pyrazol-4-yl)pyrimidin-2-yl)amino)cyclohexyl)-3H-imidazo[4,5-b]pyridine-6-carbonitrile]
13 | 50 to 500 | Cn1ncc(-c2nc(N[C@@H]3CCC[C@H](n4cnc5cccnc54)C3)ncc2C#N)c1CO [Example 26, 2-(((1R,3S)-3-(3H-Imidazo[4,5-b]pyridin-3-yl)cyclohexyl)amino)-4-(5-(hydroxymethyl)-1-methyl-1H-pyrazol-4-yl)pyrimidine-5-carbonitrile]
14 | < 50 | Cn1cc(-c2cnc3c(c2)ncn3[C@H]2CCC[C@@H](Nc3ncc(C(F)(F)F)c(-c4cnn(CC(F)F)c4)n3)C2)cn1 [Example 81, 4-(1-(2,2-Difluoroethyl)-1H-pyrazol-4-yl)-N-((1R,3S)-3-(6-(1-methyl-1H-pyrazol-4-yl)-3H-imidazo[4,5-b]pyridin-3-yl)cyclohexyl)-5-(trifluoromethyl)pyrimidin-2-amine]
